Assay results taken from ChEMBL document CHEMBL5360546, “Identification and characterisation of the tegument-expressed aldehyde dehydrogenase SmALDH_312 of Schistosoma mansoni, a target of disulfiram” (Eur J Med Chem, 2023).
One block for each compound: values may come before it. The source made the active and inactive calls. No cut-off for these calls is given here.

Legend:
[1] = Inhibition of recombinant Schistosoma mansoni ALDH312 expressed in baculovirus Sf9 cells at 100 uM in presence of NADPH relative to control
[2] = molecular target: T1, Aldehyde dehydrogenase, mitochondrial (Homo sapiens) (UniProt P05091); assay: Inhibition of human ALDH2 at 100 uM in presence of NADPH
T1 sequence (whole entry): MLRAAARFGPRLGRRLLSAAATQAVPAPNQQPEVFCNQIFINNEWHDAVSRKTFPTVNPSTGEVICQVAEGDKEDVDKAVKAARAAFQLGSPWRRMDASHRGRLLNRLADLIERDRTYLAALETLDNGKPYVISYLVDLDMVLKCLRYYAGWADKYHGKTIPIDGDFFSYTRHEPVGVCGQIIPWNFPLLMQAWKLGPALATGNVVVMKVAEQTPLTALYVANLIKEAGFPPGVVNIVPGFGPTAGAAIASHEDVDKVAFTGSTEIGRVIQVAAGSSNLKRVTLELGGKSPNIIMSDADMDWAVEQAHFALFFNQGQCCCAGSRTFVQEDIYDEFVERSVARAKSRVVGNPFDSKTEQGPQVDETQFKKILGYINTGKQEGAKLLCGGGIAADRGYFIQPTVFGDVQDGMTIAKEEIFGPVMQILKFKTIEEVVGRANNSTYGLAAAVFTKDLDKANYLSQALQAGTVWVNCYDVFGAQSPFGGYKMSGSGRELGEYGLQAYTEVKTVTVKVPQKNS

[3] = Inhibition of recombinant Schistosoma mansoni ALDH312 expressed in baculovirus Sf9 cells at 50 uM in presence of NADPH relative to control
[4] = Inhibition of recombinant Schistosoma mansoni ALDH312 expressed in baculovirus Sf9 cells in presence of NADPH
[5] = molecular target: T1, Aldehyde dehydrogenase, mitochondrial (Homo sapiens); assay: Inhibition of human ALDH2 at 100 uM in presence of NADPH relative to control
Schistosoma mansoni [6] = assay: Antischistosomal activity against Schistosoma mansoni couple assessed as couple separation at 1 uM measured after 24 to 72 hrs; format: functional, organism-based; conditions: time 24-72 hrs
Schistosoma mansoni [7] = assay: Antischistosomal activity against Schistosoma mansoni couple assessed as couple separation at 25 uM measured at day 1 relative to control; format: functional; conditions: time 1 day
Schistosoma mansoni [8] = assay: Antischistosomal activity against Schistosoma mansoni couple assessed as couple separation at 100 uM measured at day 1 relative to control; format: functional; conditions: time 1 day
Schistosoma mansoni [9] = assay: Antischistosomal activity against Schistosoma mansoni couple assessed as reduction in couple attachment at 10 uM measured at day 3 relative to control; format: functional; design: scale not given: the % may be the effect or the level left; conditions: time 3 day
Schistosoma mansoni [10] = assay: Antischistosomal activity against Schistosoma mansoni couple assessed as decrease in couple attachment at 25 uM measured upto 3 days; format: functional, organism-based; conditions: time <= 3.0 day
Schistosoma mansoni [11] = assay: Antischistosomal activity against Schistosoma mansoni couple assessed as worm motility at 1 uM measured after 72 hrs; format: functional, organism-based
Schistosoma mansoni [12] = assay: Antischistosomal activity against Schistosoma mansoni couple assessed as reduction worm motility at 10 to 200 uM measured at day 3; format: functional, organism-based; conditions: dose 10-200 µM, time 3.0 day
Schistosoma mansoni [13] = assay: Antischistosomal activity against Schistosoma mansoni couple assessed as decrease in total number of eggs measured after 72 hrs; format: functional, organism-based; conditions: dose 1-200 µM
Schistosoma mansoni [14] = assay: Induction of morphological changes in Schistosoma mansoni couple assessed as effect on gonads tegument at 10 uM by confocal laser scanning microscopy analysis; format: functional, organism-based
Schistosoma mansoni [15] = assay: Induction of morphological changes in Schistosoma mansoni couple assessed as effect on gonads internal structure at 10 uM by confocal laser scanning microscopy analysis; format: functional, organism-based
Schistosoma mansoni [16] = assay: Induction of morphological changes in male Schistosoma mansoni assessed as formation of blebs at 25 uM by confocal laser scanning microscopy analysis; format: functional, organism-based
Schistosoma mansoni [17] = assay: Induction of morphological changes in female Schistosoma mansoni assessed as formation of blebs at 25 uM by confocal laser scanning microscopy analysis; format: functional, organism-based
Schistosoma mansoni [18] = assay: Induction of morphological changes in male Schistosoma mansoni assessed as formation of ruptures at 25 uM by confocal laser scanning microscopy analysis; format: functional, organism-based
Schistosoma mansoni [19] = assay: Induction of morphological changes in female Schistosoma mansoni assessed as formation of ruptures at 25 uM by confocal laser scanning microscopy analysis; format: functional, organism-based
Schistosoma mansoni [20] = assay: Induction of morphological changes in Schistosoma mansoni couple assessed as loss of structural integrity in reproductive organs at 25 uM by scanning electron microscopy analysis; format: functional, organism-based
Schistosoma mansoni [21] = assay: Induction of morphological changes in male Schistosoma mansoni assessed as degeneration of spermatogonia at 25 uM by scanning electron microscopy analysis; format: functional, organism-based
Schistosoma mansoni [22] = assay: Induction of morphological changes in female Schistosoma mansoni assessed as degeneration of oocytes at 25 uM by scanning electron microscopy analysis; format: functional, organism-based
Schistosoma mansoni [23] = assay: Induction of morphological changes in Schistosoma mansoni couple assessed as swelling of tegument at 10 to 25 uM by confocal laser scanning microscopy analysis; format: functional, organism-based; conditions: dose 10-25 µM
Schistosoma mansoni [24] = assay: Induction of morphological changes in Schistosoma mansoni couple assessed as detachment of tegument at 10 to 25 uM by confocal laser scanning microscopy analysis; format: functional, organism-based; conditions: dose 10-25 µM
Schistosoma mansoni [25] = assay: Induction of morphological changes in Schistosoma mansoni couple assessed as tubercles rupture at 10 to 25 uM by confocal laser scanning microscopy analysis; format: functional, organism-based; conditions: dose 10-25 µM
Schistosoma mansoni [26] = assay: Induction of morphological changes in Schistosoma mansoni couple assessed as formation of blebs at 10 to 25 uM by confocal laser scanning microscopy analysis; format: functional, organism-based; conditions: dose 10-25 µM
Schistosoma mansoni [27] = assay: Inhibition of cell proliferation in Schistosoma mansoni couple assessed as reduction in EdU positive number measured after 3 days by Hoechst 33342 staining based analysis; format: functional; conditions: dose 10-25 µM, time 3.0 day
Schistosoma mansoni [28] = assay: Antischistosomal activity against Schistosoma mansoni larva assessed as lethality at 500 nM measured after 72 hrs by Trypan blue staining based analysis; format: functional, organism-based
Schistosoma mansoni [29] = assay: Downregulation of Smaldh312 level in Schistosoma mansoni male at 10 uM measured after 72 hrs by qRT-PCR analysis; format: functional
Schistosoma mansoni [30] = assay: Downregulation of Smnanos1 transcript level in Schistosoma mansoni male at 10 to 25 uM measured after 72 hrs by qRT-PCR analysis; format: functional; conditions: dose 10-25 µM
Schistosoma mansoni [31] = assay: Downregulation of Smnanos1 transcript level in Schistosoma mansoni female at 10 to 25 uM measured after 72 hrs by qRT-PCR analysis; format: functional; conditions: dose 10-25 µM
Schistosoma mansoni [32] = assay: Upregulation of Smnanos2 transcript level in Schistosoma mansoni male at 10 uM measured after 72 hrs by qRT-PCR analysis; format: functional
Schistosoma mansoni [33] = assay: Upregulation of Smnanos2 transcript level in Schistosoma mansoni female at 10 uM measured after 72 hrs by qRT-PCR analysis; format: functional

- inhibition [2]: inactive
- IC50 [4]: 7.5 µM
SMILES: O=C(Nc1ccc(C(F)(F)F)c(C(F)(F)F)c1)c1cc(Cl)ccc1O
- inhibition [1]: 100%
- inhibition [3]: 100%

- inhibition [2]: inactive
- IC50 [4]: 21.8 µM
SMILES: CN1CCC(NCc2cccc(-c3ccc(S(=O)(=O)NCc4ccccc4)cc3)c2)CC1
- inhibition [1]: 80.4%

- inhibition [2]: Active
- IC50 [4]: 12.5 µM
SMILES: CC(C)=CCC/C(C)=C\CNCCNC1C2CC3CC(C2)CC1C3 (stereo not given)
- inhibition [1]: 100%

- inhibition [5]: 99%
SMILES: CCN(CC)C(=S)SSC(=S)N(CC)CC [DISULFIRAM]
- inhibition [1]: 41.2%
- Activity (Schistosoma mansoni [6]): inactive
- Activity (Schistosoma mansoni [7]): 50%
- Activity (Schistosoma mansoni [8]): 100%
- Activity (Schistosoma mansoni [9]): 50%
- Activity (Schistosoma mansoni [10]): Active
- Activity (Schistosoma mansoni [11]): inactive
- Activity (Schistosoma mansoni [12]): Active
- Activity (Schistosoma mansoni [13]): Dose-Dependent Effect
- Activity (Schistosoma mansoni [14]): inactive
- Activity (Schistosoma mansoni [15]): inactive
- Activity (Schistosoma mansoni [16]): Active
- Activity (Schistosoma mansoni [17]): Active
- Activity (Schistosoma mansoni [18]): Active
- Activity (Schistosoma mansoni [19]): Active
- Activity (Schistosoma mansoni [20]): Active
- Activity (Schistosoma mansoni [21]): Active
- Activity (Schistosoma mansoni [22]): Active
- Activity (Schistosoma mansoni [23]): Active
- Activity (Schistosoma mansoni [24]): Active
- Activity (Schistosoma mansoni [25]): Active
- Activity (Schistosoma mansoni [26]): Active
- inhibition (Schistosoma mansoni [27]): Dose-Dependent Effect
- Activity (Schistosoma mansoni [28]): Active
- Activity (Schistosoma mansoni [29]): Active
- Activity (Schistosoma mansoni [30]): Active
- Activity (Schistosoma mansoni [31]): Active
- Activity (Schistosoma mansoni [32]): Active
- Activity (Schistosoma mansoni [33]): inactive
